# Measurements: paper PMC12454639, “Direct disassembly of α-syn preformed fibrils into α-syn monomers by an all-D-peptide” (NPJ Parkinson's Disease, 2025)
# Square brackets hold non-standard residues; d marks the D form. Peptide text beside a SMILES is read from it.
# System: small α-syn PFF
# Assay: 100 kDa MWCO size-based fractionation of small α-syn PFF followed by ELISA
# Assay type: biochemical, Human
# Conditions: 200 nM PFF, 72 h, 37 °C, n = 3
# Method: Fig. 4 SVD-1a disassembles small α-syn PFF seeds into α-syn monomers. Small α-syn PFF seeds were prepared as described previously. […] A and B Time-dependent DLS measurements with 200 nM small α-syn PFF seeds in the absence (A) and presence (B) of 500 nM SVD-1a. 1 ml sample was continuously measured in a sealed quartz cuvette at 37 °C under quiescent conditions every 60 s for 72 h in a SpectroSize 300 instrument (XtalConcepts, GE). Data are shown as a radius plot where the signal amplitude of each particle size is represented by the data point diameter. C One-phase exponential decay fit of “200 nM PFF + 500 nM SVD-1a” shown in (B). […] PFF and monomer samples that were incubated without SVD-1a served as controls. α-Syn was detected with the antibody Syn211. […] In the upper part of the blot, above the marker range, PFFs were detected, using a longer exposure time due to a weaker signal (see Supplementary Fig. 11 for the whole blot image with different exposure times). F Size-based fractionation by centrifugal concentration followed by ELISA quantification. […] After incubation, the samples were fractioned using a 100 kDa MWCO centrifugal concentrator (Merck, Microcon DNA Fast Flow 100 MWCO). α-Syn content of flow through (red) and retentate (blue) was quantified using an α-syn specific ELISA (BioLegend, Human α-Synuclein (Colorimetric), 448607). […]
compound,measurement,setting,value
CC[C@@H](C)[C@@H](NC(=O)[C@@H](Cc1c[nH]cn1)NC(=O)[C@@H](CCC(=O)O)NC(=O)[C@@H](CCC(N)=O)NC(=O)[C@@H](Cc1c[nH]c2ccccc12)NC(=O)[C@@H](Cc1ccc(O)cc1)NC(=O)[C@H](NC(=O)[C@@H](CCC(=O)O)NC(=O)[C@@H](Cc1c[nH]cn1)NC(=O)[C@H](NC(=O)[C@H]1CCCN1C(=O)[C@@H](CC(C)C)NC(=O)[C@H](N)CCCNC(=N)N)[C@H](C)O)[C@H](C)O)C(=O)N[C@H](Cc1c[nH]c2ccccc12)C(=O)N[C@H](Cc1c[nH]cn1)C(=O)N[C@H](C)C(=O)N[C@H](CCCNC(=N)N)C(=O)N[C@H](CCCNC(=N)N)C(=O)N[C@H](CCCNC(=N)N)C(=O)N[C@H](CCCNC(=N)N)C(=O)N[C@H](CCCNC(=N)N)C(N)=O [SVD-1a] (H-[dR][dL][dP][dT][dH][dE][dT][dY][dW][dQ][dE][dH][dI][dW][dH][dA][dR][dR][dR][dR][dR]-NH2),α-syn fraction in retentate / eluate,"increasing SVD-1a, 100 kDa MWCO, ELISA",concentration-dependent decrease of the α-syn fraction in the retentate—corresponding to small α-syn PFF—and an increase in the eluate
same,α-syn distribution vs monomer control,1000 nM SVD-1a,shows the same distribution as the monomer control
